{"source": "paper PMC11053447", "about": "“Human ABC and SLC Transporters: The Culprit Responsible for Unspecific PSMA-617 Uptake?” (Pharmaceuticals, 2024)", "key": {"human OAT2v1": {"target": "T1, human OAT2v1 (Homo sapiens, UniProt Q9Y694)", "T1 construct": "host or cells: HEK293-OAT2v1-LV", "T1 sequence (Q9Y694 1-546 isoform Q9Y694-2)": "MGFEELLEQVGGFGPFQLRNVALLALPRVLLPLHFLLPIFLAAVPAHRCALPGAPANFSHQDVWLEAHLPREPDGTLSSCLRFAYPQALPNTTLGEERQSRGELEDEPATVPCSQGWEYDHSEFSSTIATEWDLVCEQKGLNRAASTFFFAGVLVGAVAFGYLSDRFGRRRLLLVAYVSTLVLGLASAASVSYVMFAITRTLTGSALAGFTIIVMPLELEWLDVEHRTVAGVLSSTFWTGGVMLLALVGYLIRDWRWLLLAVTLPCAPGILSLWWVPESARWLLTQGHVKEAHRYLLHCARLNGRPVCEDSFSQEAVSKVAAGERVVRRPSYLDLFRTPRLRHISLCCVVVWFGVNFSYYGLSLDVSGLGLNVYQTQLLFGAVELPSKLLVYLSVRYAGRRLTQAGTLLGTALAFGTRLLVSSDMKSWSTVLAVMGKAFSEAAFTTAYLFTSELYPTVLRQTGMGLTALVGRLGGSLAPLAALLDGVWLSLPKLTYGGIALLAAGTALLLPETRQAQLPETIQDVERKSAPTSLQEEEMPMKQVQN", "experiment": "SLC transporter substrate assay, HEK293-OAT2v1-LV vs control HEK293-Mock-LV cells", "format": "in vitro ADME", "details": "20 min", "description": "SI4. Results of transporter substrate assays (SLC)\nHuman Incubation Positive control substrate/ Control Special Incubation Assay […]\n(Cell line) at 37°C [min] [h]\nOAT2v1 cGMP (1.5) / Mock-B- Poly-D-lysine\nFold accumulation = UPTTRP\nPSMA-617 in SLC transporters.\nNA: not analyzed. Test substances were considered as substrates in case of fold accumulation values > 2 combined with inhibition values higher than 50%.\n4.4 Organic anion transporter OAT2v1 […]\nexpressed as mean (n=3) ± SD. Concentrations are nominal.\nTable S13: ([α,β-3H]Nal)Lu-PSMA-617-accumulation in OAT2v1 transporter expressing (HEK293-OAT2v1-LV) and […]\nConditions Accumulation (pmol/mg protein)\nCompound Nominal In OAT2v1 Fold concentration Minutes transporter In control Active accumulation\n[µM] expressing cells transport\nPositive control (accumulation in cpm)"}, "MRP1": {"target": "MRP1 (Homo sapiens, UniProt P33527)", "sequence (P33527 whole entry)": "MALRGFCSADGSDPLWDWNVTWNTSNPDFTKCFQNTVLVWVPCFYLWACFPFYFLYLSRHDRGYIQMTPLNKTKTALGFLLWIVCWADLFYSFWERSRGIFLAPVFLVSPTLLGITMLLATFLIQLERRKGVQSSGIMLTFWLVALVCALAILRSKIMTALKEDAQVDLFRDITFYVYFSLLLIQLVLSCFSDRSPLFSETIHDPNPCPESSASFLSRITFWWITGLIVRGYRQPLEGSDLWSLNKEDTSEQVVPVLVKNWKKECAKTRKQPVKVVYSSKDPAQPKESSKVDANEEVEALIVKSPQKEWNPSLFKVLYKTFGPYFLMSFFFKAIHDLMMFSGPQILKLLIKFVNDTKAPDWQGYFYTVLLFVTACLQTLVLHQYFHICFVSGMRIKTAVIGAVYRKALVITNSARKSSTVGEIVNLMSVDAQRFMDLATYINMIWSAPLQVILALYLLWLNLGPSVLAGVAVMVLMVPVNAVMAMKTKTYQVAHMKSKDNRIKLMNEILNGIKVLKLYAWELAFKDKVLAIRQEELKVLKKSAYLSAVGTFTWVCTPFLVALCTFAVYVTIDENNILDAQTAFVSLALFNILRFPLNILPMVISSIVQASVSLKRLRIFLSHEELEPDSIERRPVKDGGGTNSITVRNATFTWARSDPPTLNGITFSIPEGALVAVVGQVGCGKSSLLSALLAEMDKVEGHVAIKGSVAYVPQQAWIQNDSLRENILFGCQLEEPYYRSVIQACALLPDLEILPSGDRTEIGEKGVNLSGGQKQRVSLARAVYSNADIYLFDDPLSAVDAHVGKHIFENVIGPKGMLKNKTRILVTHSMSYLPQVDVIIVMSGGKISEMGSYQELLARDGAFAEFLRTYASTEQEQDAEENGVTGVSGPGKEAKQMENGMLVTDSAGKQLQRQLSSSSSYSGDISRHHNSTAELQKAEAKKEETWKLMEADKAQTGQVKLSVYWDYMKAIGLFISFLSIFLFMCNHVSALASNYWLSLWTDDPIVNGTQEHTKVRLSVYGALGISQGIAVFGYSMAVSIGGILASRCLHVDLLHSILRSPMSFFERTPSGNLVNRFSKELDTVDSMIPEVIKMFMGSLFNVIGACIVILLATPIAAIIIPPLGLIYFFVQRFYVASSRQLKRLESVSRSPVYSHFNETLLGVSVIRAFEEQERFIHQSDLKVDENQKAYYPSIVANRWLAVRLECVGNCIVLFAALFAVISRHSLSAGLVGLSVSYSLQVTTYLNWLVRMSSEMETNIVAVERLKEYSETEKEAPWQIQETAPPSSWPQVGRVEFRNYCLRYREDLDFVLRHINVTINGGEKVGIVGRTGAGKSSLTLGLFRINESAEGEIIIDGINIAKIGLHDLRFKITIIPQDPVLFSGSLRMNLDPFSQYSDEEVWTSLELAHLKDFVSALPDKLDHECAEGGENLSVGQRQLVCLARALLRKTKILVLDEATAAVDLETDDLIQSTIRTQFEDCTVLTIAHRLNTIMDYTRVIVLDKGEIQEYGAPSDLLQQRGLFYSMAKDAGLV", "details": "for Relative inhibition / ATP dependent transport / Relative ATP dependent transport: E217βG probe; for ATP dependent transport / Relative ATP dependent transport: mean (n=3) ± SD"}, "[1]": {"details": "0.03 µM nominal + Indomethacin 300 µM"}, "[2]": {"details": "0.30 µM nominal + Indomethacin 300 µM"}}, "note": "Read-outs that look alike come from different tables or passages of the source.", "data": [{"smiles": "[3H]C(c1ccc2ccccc2c1)C([3H])(NC(=O)C1CCC(CNC(=O)CN2CCN(CC(=O)[O-])CCN(CC(=O)[O-])CCN(CC(=O)[O-])CC2)CC1)C(=O)NCCCCC(NC(=O)NC(CCC(=O)O)C(=O)O)C(=O)O.[Lu+3]", "note": "(stereo not drawn) [([α,β-^3H]Nal)Lu-PSMA-617]", "values": [{"measurement": "Accumulation in OAT2v1 transporter expressing cells", "setting": "human OAT2v1; [1]", "value": "0.06 ± 0.01", "unit": "pmol/mg protein"}, {"measurement": "Accumulation in control cells", "setting": "human OAT2v1; [1]", "value": "0.04 ± 0.00", "unit": "pmol/mg protein"}, {"measurement": "Accumulation, active transport", "setting": "human OAT2v1; [1]", "value": "0.01 ± 0.01", "unit": "pmol/mg protein"}, {"measurement": "Fold accumulation", "setting": "human OAT2v1; [1]", "value": 1.24}, {"measurement": "Accumulation in OAT2v1 transporter expressing cells", "setting": "human OAT2v1; 0.03 µM nominal, no inhibitor", "value": "0.07 ± 0.01", "unit": "pmol/mg protein"}, {"measurement": "Accumulation in control cells", "setting": "human OAT2v1; 0.03 µM nominal, no inhibitor", "value": "0.04 ± 0.00", "unit": "pmol/mg protein"}, {"measurement": "Accumulation, active transport", "setting": "human OAT2v1; 0.03 µM nominal, no inhibitor", "value": "0.03 ± 0.01", "unit": "pmol/mg protein"}, {"measurement": "Fold accumulation", "setting": "human OAT2v1; 0.03 µM nominal, no inhibitor", "value": 1.77}, {"measurement": "Accumulation in OAT2v1 transporter expressing cells", "setting": "human OAT2v1; [2]", "value": "0.66 ± 0.10", "unit": "pmol/mg protein"}, {"measurement": "Accumulation in control cells", "setting": "human OAT2v1; [2]", "value": "0.43 ± 0.03", "unit": "pmol/mg protein"}, {"measurement": "Accumulation, active transport", "setting": "human OAT2v1; [2]", "value": "0.24 ± 0.10", "unit": "pmol/mg protein"}, {"measurement": "Fold accumulation", "setting": "human OAT2v1; [2]", "value": 1.55}, {"measurement": "Accumulation in OAT2v1 transporter expressing cells", "setting": "human OAT2v1; 0.30 µM nominal, no inhibitor", "value": "0.66 ± 0.04", "unit": "pmol/mg protein"}, {"measurement": "Accumulation in control cells", "setting": "human OAT2v1; 0.30 µM nominal, no inhibitor", "value": "0.36 ± 0.03", "unit": "pmol/mg protein"}, {"measurement": "Accumulation, active transport", "setting": "human OAT2v1; 0.30 µM nominal, no inhibitor", "value": "0.30 ± 0.05", "unit": "pmol/mg protein"}, {"measurement": "Fold accumulation", "setting": "human OAT2v1; 0.30 µM nominal, no inhibitor", "value": 1.83}, {"measurement": "Max. transporter-specific fold accumulation, without inhibitor", "setting": "human OAT2v1; 0.3 µM", "value": 1.83}, {"measurement": "Uptake via transporter (OAT2v1)", "setting": "human OAT2v1; absence and presence of indomethacin", "value": "not taken up"}, {"measurement": "Max. transporter-specific fold accumulation, with inhibitor", "setting": "human OAT2v1; Indomethacin, 0.3 µM", "value": 1.55}, {"measurement": "Inhibitor assessment (MRP1)", "setting": "MRP1; 0.30 and 3.00 µM, inhibition >20% defined as significant", "value": "no inhibitor"}, {"measurement": "Relative inhibition", "setting": "MRP1; test substance 0.30 µM nominal", "value": 9, "unit": "%"}, {"measurement": "ATP dependent transport", "setting": "MRP1; test substance 0.30 µM nominal", "value": "734.00 ± 31.29", "unit": "pmol/mg/min"}, {"measurement": "Relative ATP dependent transport", "setting": "MRP1; test substance 0.30 µM nominal", "value": "91.45 ± 7.39 % of control"}, {"measurement": "Relative inhibition", "setting": "MRP1; test substance 3.00 µM nominal", "value": 9, "unit": "%"}, {"measurement": "ATP dependent transport", "setting": "MRP1; test substance 3.00 µM nominal", "value": "730.00 ± 37.02", "unit": "pmol/mg/min"}, {"measurement": "Relative ATP dependent transport", "setting": "MRP1; test substance 3.00 µM nominal", "value": "90.95 ± 7.76 % of control"}]}]}
